Source: PMC10582335 (Frontiers in Pharmacology, 2023)
Where two headings read alike, the source gives them in different places.

What was measured:
[1] = Pharmacokinetics of almonertinib in rats, alone and after multiple doses of rivaroxaban or apixaban; type: in vivo, Sprague-Dawley (SD) rats; details: for AUC(0-inf) / AUC(0-t) / Cmax / Tmax / CL/F / MRT last / MRT inf / Vd/F / half-life: male, Sprague-Dawley, rat, plasma, po, 15 mg/kg, mean ± SD, n = 6; for CL/F: read-out: CLz/F (converted); for MRT last: read-out: MRT0-t; for MRT inf: read-out: MRT0-∞; for Vd/F: read-out: Vz/F; for half-life: read-out: t1/2z (converted)
Experimental: Chromatographic separation was performed using an XSelect HSS T3 column (2.1 mm × 100 mm, 2.5 µm, Waters, Milford, MA, United States) at 40°C by gradient elution. The mobile phase consisted of water (A) and acetonitrile (0.1% formic acid, B). […] The flow rate was 0.35 mL min^−1, and the injection volume was 6 µL. The positive ion mode with multiple reaction detection was used. […] The mass spectrometer conditions, including delustering potential (DP) and collision energy (CE) of the compounds, are shown in Table 1. […] Protein precipitation was used to process the plasma samples. 5 μL of mixed IS working solution, 50 µL of the plasma samples, and 150 µL of acetonitrile were vortex-mixed for 1.0 min. […] The supernatant was transferred to a 96-well plate for sample analysis. […] (Beijing, China). […] The study was approved and supervised by the Animal Ethics Committee of Hebei General Hospital (Shijiazhuang, China) (No. 2023024). Adaptive feeding (sufficient food and water) was performed for 1 week before the experiment. […] All rats were fasted for 12 h before starting the experiments while still given water. Sixty healthy rats were randomly divided into ten groups (n = 6). […] Blood samples were centrifuged at 3,500 g for 10 min, and then the supernatant was gathered and stored in a −80°C refrigerator. After, rat intestine, kidney and liver tissues were harvested for molecular analysis on the ninth or fifth day after treatment with the corresponding drugs for each group. The tissues were placed immediately at −80°C. DAS 2.1.1 Software (Mathematical Pharmacology Professional Committee of China, Shanghai, China) was applied to calculate pharmacokinetic parameters using non-compartmental analysis. SPSS 25.0 statistical software (SPSS Inc., Chicago, IL, United States) was applied to statistically analyze the main pharmacokinetic parameters, including AUC, Cmax, Tmax, t1/2, CLz/F, Vz/F, and MRT.

Abcg2 mRNA (BCRP) = test: qRT-PCR of mRNA expression in rat tissues after multiple-dose almonertinib; type: in vivo; details: intestine, rats given almonertinib for nine consecutive days, n = 3
Experimental: (§1) Sixty healthy rats were randomly divided into ten groups (n = 6). […] Blood samples were centrifuged at 3,500 g for 10 min, and then the supernatant was gathered and stored in a −80°C refrigerator. After, rat intestine, kidney and liver tissues were harvested for molecular analysis on the ninth or fifth day after treatment with the corresponding drugs for each group. The tissues were placed immediately at −80°C.
(§2) qRT-PCR analysis was used to determine mRNA levels of Abcb1a, Abcg2 and Cyp3a1 in the liver and intestines, and Abcb1a and Abcg2 in the kidney of rats. Total RNA was isolated from frozen liver, intestine and kidney samples using TRNzol Universal according to the manufacturer’s instructions. A Bio Tek Epoch (Bio Tek Instruments, Inc., Winooski, VT, United States) was employed to quantify the purity and concentration of the total RNA based on the ratio of the absorbance between 260 and 280 nm. RNA samples of 1 µg were transformed to complementary DNA (cDNA) using the FastKing RT Kit. The real-time PCR assays were accomplished using a two-step amplification method based on the recommendations in a SLAN-96S Real-Time PCR system (Shanghai Hongshi Medical Technology Co., Ltd. Shanghai, China). […] was used as an internal control, and the PCR cycling criteria were as follows: 95°C for 15 min, then 40 cycles of 95°C for 10, and 60°C for 32 s.

Cyp3a1 mRNA (CYP3A4) = test: as above; type: in vivo; details: rats given almonertinib for nine consecutive days, n = 3
Experimental: as §1, §2

[2] = almonertinib; ref Yang et al., 2020; cited from earlier work
[3] = Stability in rat plasma under storage and processing conditions (QC samples, UPLC-MS/MS); details: n = 6
Experimental: The stability of plasma samples was validated by the QC samples at three concentration levels in six replicates under various storage and processing conditions: autosampler for 24 h after preprocessing, room temperature for 8 h, −80°C for 30 days, and three freeze-thaw cycles (−80°C to room temperature). The samples were verified to be stable if the deviation of the samples was not more than ±15% of the standard concentration.

[4] = almonertinib 15 mg/kg after multiple doses of rivaroxaban (group 9) compared with group 3, rats
[5] = rats, oral almonertinib 15 mg/kg after apixaban 0.5 mg/kg for five days (group 10)
[6] = rats, oral almonertinib 15 mg/kg after rivaroxaban 2 mg/kg for five days (group 9)
[7] = rats, oral almonertinib 15 mg/kg alone (group 3, control solvent of rivaroxaban)
[8] = rats, oral almonertinib 15 mg/kg alone (group 4, control solvent of apixaban)
[9] = Freeze-thaw stability for three times, high QC (nominal 150 almonertinib, 800 apixaban, 1,500 rivaroxaban ng/mL)
[10] = Freeze-thaw stability for three times, low QC (nominal 1 almonertinib, 2 apixaban, 10 rivaroxaban ng/mL)
[11] = Freeze-thaw stability for three times, medium QC (nominal 80 almonertinib, 400 apixaban, 800 rivaroxaban ng/mL)
[12] = Room temperature for 8 h, high QC (nominal 150 almonertinib, 800 apixaban, 1,500 rivaroxaban ng/mL)
[13] = Room temperature for 8 h, low QC (nominal 1 almonertinib, 2 apixaban, 10 rivaroxaban ng/mL)
[14] = Room temperature for 8 h, medium QC (nominal 80 almonertinib, 400 apixaban, 800 rivaroxaban ng/mL)
[15] = −80°C for 30 days, high QC (nominal 150 almonertinib, 800 apixaban, 1,500 rivaroxaban ng/mL)
[16] = −80°C for 30 days, low QC (nominal 1 almonertinib, 2 apixaban, 10 rivaroxaban ng/mL)
[17] = −80°C for 30 days, medium QC (nominal 80 almonertinib, 400 apixaban, 800 rivaroxaban ng/mL)

- all the pharmacokinetic parameters of almonertinib, comparison with almonertinib alone ([1]; almonertinib 15 mg/kg after multiple doses of apixaban 0.5 mg/kg (group 10) compared with group 4, rats): no statistically significant difference
- increase of Cmax of almonertinib ([1]; almonertinib 15 mg/kg after multiple doses of rivaroxaban (group 9) compared with almonertinib alone (group 3), rats): 1.26 fold
- decrease of CLz/F of almonertinib [1, 4]: 81.1%
- increase of AUC0-t of almonertinib [1, 4]: 1.17 fold
- increase of AUC0-∞ of almonertinib [1, 4]: 1.17 fold
- AUC(0-inf) [1, 5]: 293 ± 48.9 ng·h/mL
- AUC(0-t) [1, 5]: 267 ± 51.9 ng·h/mL
- Cmax [1, 5]: 42.1 ± 5.99 ng/mL
- Tmax [1, 5]: 2.5 ± 1.18 h
- CL/F [1, 5]: 877 mL/min/kg
- MRT last [1, 5]: 6.49 ± 0.35 h
- MRT inf [1, 5]: 9.31 ± 2.59 h
- Vd/F [1, 5]: 522 ± 318 L/kg
- half-life [1, 5]: 6.79 ± 4.15 h
- AUC(0-inf) [1, 6]: 299 ± 150 ng·h/mL
- AUC(0-t) [1, 6]: 299 ± 150 ng·h/mL
- Cmax [1, 6]: 51.4 ± 24.9 ng/mL
- Tmax [1, 6]: 3.17 ± 0.41 h
- CL/F [1, 6]: 1040 mL/min/kg
- MRT last [1, 6]: 5.15 ± 0.66 h
- MRT inf [1, 6]: 5.15 ± 0.66 h
- Vd/F [1, 6]: 244 ± 168 L/kg
- half-life [1, 6]: 2.7 ± 0.78 h
- AUC(0-inf) [1, 7]: 138 ± 31.3 ng·h/mL
- AUC(0-t) [1, 7]: 138 ± 31.3 ng·h/mL
- Cmax [1, 7]: 22.8 ± 4.76 ng/mL
- Tmax [1, 7]: 2.17 ± 1.13 h
- CL/F [1, 7]: 1880 mL/min/kg
- MRT last [1, 7]: 5.03 ± 0.73 h
- MRT inf [1, 7]: 5.03 ± 0.74 h
- Vd/F [1, 7]: 331 ± 125 L/kg
- half-life [1, 7]: 2.18 ± 1.05 h
- AUC(0-inf) [1, 8]: 299 ± 46.8 ng·h/mL
- AUC(0-t) [1, 8]: 281 ± 43.3 ng·h/mL
- Cmax [1, 8]: 39.8 ± 8.12 ng/mL
- Tmax [1, 8]: 1.83 ± 1.03 h
- CL/F [1, 8]: 855 mL/min/kg
- MRT last [1, 8]: 6.53 ± 0.97 h
- MRT inf [1, 8]: 8.35 ± 3.38 h
- Vd/F [1, 8]: 383 ± 316 L/kg
- half-life [1, 8]: 5.4 ± 4.96 h
- inhibition of mRNA expression of Cyp3a1 (Cyp3a1 mRNA (CYP3A4); intestine): 96.9%
- inhibition of mRNA expression of Cyp3a1 (Cyp3a1 mRNA (CYP3A4); liver): 45.5%
- Stability: Accuracy (RE%) [3, 9]: −2.56%
- Stability: measured concentration, Mean ± SD [3, 9]: 146.17 ± 6.68 ng/mL
- Stability: Accuracy (RE%) [3, 10]: 1.47%
- Stability: measured concentration, Mean ± SD [3, 10]: 1.01 ± 0.09 ng/mL
- Stability: Accuracy (RE%) [3, 11]: 2.13%
- Stability: measured concentration, Mean ± SD [3, 11]: 81.7 ± 2.27 ng/mL
- Stability: Accuracy (RE%) [3, 12]: −1.67%
- Stability: measured concentration, Mean ± SD [3, 12]: 147.50 ± 9.83 ng/mL
- Stability: Accuracy (RE%) [3, 13]: 0.97%
- Stability: measured concentration, Mean ± SD [3, 13]: 1.01 ± 0.08 ng/mL
- Stability: Accuracy (RE%) [3, 14]: 0.60%
- Stability: measured concentration, Mean ± SD [3, 14]: 80.48 ± 6.42 ng/mL
- Stability: Accuracy (RE%) [3, 15]: −2.22%
- Stability: measured concentration, Mean ± SD [3, 15]: 146.67 ± 10.63 ng/mL
- Stability: Accuracy (RE%) [3, 16]: 2.33%
- Stability: measured concentration, Mean ± SD [3, 16]: 1.02 ± 0.10 ng/mL
- Stability: Accuracy (RE%) [3, 17]: 0.65%
- Stability: measured concentration, Mean ± SD [3, 17]: 80.52 ± 3.47 ng/mL
Structure (SMILES): C=CC(=O)Nc1cc(Nc2nccc(-c3cn(C4CC4)c4ccccc34)n2)c(OC)cc1N(C)CCN(C)C [almonertinib, Almonertinib]
- inhibition of mRNA expression of Abcg2 (Abcg2 mRNA (BCRP)): 28.0%
- half-life [2]: 30 to 35 h
